Assay results as given in patent US20240418704A1, “EPIGENETIC TARGETS IN CLONAL HEMATOPOIESIS” (Memorial Sloan-Kettering Cancer Center, priority 2021, published 2024).

Tested on: HSPCs co-cultured with BMECs
Assay: BMEC co-culture system: cell-type specific differentiation readout in response to small molecules
Assay type: cell-based, murine
Conditions: Cd11b+Gr1+, Lin neg, GMP, MEP and LSK cells after contacting the cells with the agent, FIGS. 4A-4C
Description: FIGS. 4A-4C. BMEC co-culture system can be used to readout cell-type specific dependencies in response to small molecules and single guide RNAs (sgRNAs).
A platform was adopted whereby primary murine HSPCs are co-cultured with bone marrow endothelial cells that allow for maintenance and expansion of HSPCs (FIG. 1). […] Thus, the adopted HSPC-BMEC co-culture platform is a robust system to study genetically defined murine HSPCs with CH genomic modifications.

## Cc1nc(Nc2ncc(C(=O)Nc3c(C)cccc3Cl)s2)cc(N2CCN(CCO)CC2)n1 [Dasatanib]
  effect on differentiation (percentage of heme-expression and cell differentiation): inhibits differentiation
